Laboratory results taken from US20100069323A1, “COMPOSITION FOR APPLICATION TO SKIN OR MUCOSA” (priority 2006, published 2010).

Tested on: rabbit corneal epithelial cell line SIRC
Assay: Evaluation of cytotoxicity of prepared alginic acid (Cell Counting Kit-8 viable cell detection)
Format: cell-based
Procedure: The test for toxicity of the alginic acid prepared above (Example 1 and Comparative Examples 1 and 2) to cells was carried out. First, an alginic acid solution was prepared by dissolving each alginic acid to a concentration of 0.2 or 2.0% (w/v) in a cell culture medium of medium 199 (GIBCO) supplemented with 10% (v/v) fetal bovine serum (Daiichi Kagaku Yakuhin). Then, rabbit corneal epithelial cell line SIRC (ATCC number: CCL-60) was plated at 2.0×10^5 cells/well in 48-well microtiter plate (Corning), and alginic acid solution prepared above was added to obtain a final concentration of 0.1 or 1.0% (w/v) of alginic acid, and the cells were subsequently cultured under the condition of 37° C., 5% CO2 and 90% relative humidity. […] After 1 hour, the absorbance (450 nm) of the dye developed by reacting with the viable cells was measured using a spectrophotometer (Thermo Electron). With the observed value of the absorbance, cell viability was calculated in the following equation, and the cytotoxicity of each alginic acid was evaluated.
Cell viability(%)=100×(absorbance of the group in which each alginic acid solution was added−absorbance of the medium containing a reagent for viable cell detection)/(absorbance of the control group−absorbance of the medium containing a reagent for viable cell detection) Equation 5

With alginic acid [Comparative Example 2] as the substance, how does the Cell viability read?
Its Cell viability is “about 5%”.

What about the “microscopic observation of cells” value of the same substance?
The value was “lost their adhesive capacity and floated”.
